Columns and labels:
[1] = tested on: GR trans-repression and trans-activation targets, cell cycle genes and beta cell phenotype markers; test: Q-PCR of mRNA levels in cultured beta cells; format: cell-based, rat; settings: 9 days culture; 1 μM 6MP, 1 μM MIF, 0.5 μM CPA; vehicle = 1.0
[2] = tested on: rat beta cells; test: Number of living beta cells in culture (Hoechst 33342/propidium iodide whole-well imaging counts; expansion assay); format: cell-based
Protocol: (§1) Beta cells were FACS-purified from islet-cell enriched suspensions (Pipeleers et al., 1985) prepared from neonatal (2-3 days-old) and adolescent or adult (8 or 40-week-old, male) Wistar rats (Janvier Bioservices, France); their purity was, respectively 70-75% and over 90%. Sorted cells were counted in a hemocytometer, seeded (day 0) and cultured for up to 15 days in serum-free Ham's-F10 medium at 5, 10 or 20 mmol/l glucose, supplemented with 2 mmol/l L-glutamine, 50 μM 3-isobutyl-1-methylxanthine, 0.5% Albumax-I, penicillin (100 U/ml) and streptomycin (0.1 mg/ml). The 10 mmol/l glucose condition is known to maintain beta cell survival over 9-days (Ling et al., 1994; Ling and Pipeleers, 1994). Medium and cells were retrieved after selected culture periods and assayed for insulin content; data were expressed as a function of the number of living beta cells that was determined in parallel wells.
(§2) On day 1, 9 and 15 of culture, total numbers of living beta cells per well were determined by semi-automatic cell count, after Hoechst 33342 (Ho) and propidium iodide (PI) staining. Numbers of living beta cells were obtained by subtracting the PI-positive cell numbers from the Ho-positive cell numbers, and correcting for the percent insulin-negative cells, as determined following insulin-immunofluorescence staining. They were expressed as percent of the numbers on day 1. Each condition was also evaluated for increases in the percentage of proliferating beta cells (incorporating the thymidine-analogue 5-ethynyl-2′-deoxyuridine, EdU; 100 μmol/l). To detect beta cells that underwent two successive cycles, cells were sequentially exposed to two different thymidine-analogs, first EdU from day 3 to 6, and then BrdU (100 μmol/l) from day 7 to 10, with a 24-hour label-free period in between. EdU-positive (EdU^+) nuclei were detected with the Click-iT Assay kit (Invitrogen), while BrdU-positive (BrdU^+) nuclei were identified with anti-BrdU antibody.
(§3) Absolute number of cells was determined by whole-well imaging using the BD-PathwayBioimager855 (BD-Biosciences). IPLab and AttoVision software packages (BD-Biosciences) were used for image background subtraction, segmentation and quantification.
Experimental procedures for isolation of beta cells from neonatal (2-3 days old) and adult (8 or 40 week old, male) Wistar rats (Janvier Bioservices, France) and analysis of their number, viability and proliferation activity in culture have been described before (Assefa et al., 2014). Sorted beta cells were seeded in 804G matrix-coated plates (designated as day 0) and the numbers and viability of seeded cells at the start of all experiments were determined on day 1 (24 h after seeding). The cells were cultured in control medium, which is a serum-free Ham's F10 medium supplemented with 2 mM L-glutamine, 50 μM 3-isobutyl-1-methylxanthine, 0.5% Albumax I, penicillin (100 U/ml), streptomycin (0.1 mg/ml) and, unless indicated otherwise, 10 mM glucose.
(§4) Sorted beta cells were seeded in 384-well or 6-well plates coated with 804G matrix, and kept in culture for up to 15 days at 37° C. 5% CO2 using Ham F10 supplemented with 1 mM L-glutamine, 0.1 mg/ml streptomycin, 0.075 mg/ml penicillin, 50 μM of isobutyl-1-methylxanthine (IBMX) at 10 mM D-glucose with and without synthetic GCs (6 methyl-prednisolone (6MP), dexamethasone (DEX), GR-modulators (compound A (CPA), mifepristone (MIF), and NFκB inhibitors (JSH-23 en Bay11-7085). Total cell number and beta cell viability was evaluated after incubation with Hoechst 33342 and propidium iodide. All chemicals were from Sigma Life Sciences or Merck. Quantification of cell numbers and analysis of beta-cell viability was done using the Pathway Bioimager (BD Biosciences) and using IPlab and Attovision software for background subtraction as described prior (Assefa et al., 2014).

[3] = tested on: rat beta cells; test: Cellular insulin content, insulin release and glucose-stimulated insulin secretion of cultured beta cells; format: cell-based
Protocol: as §1

[4] = tested on: rat beta cells; test: Beta cell DNA synthesis/proliferation by EdU (and BrdU) incorporation, incl. LOPAC screen; format: cell-based; settings: for Percent EdU+ cells / Z-Score: LOPAC screen at 1 μM, adult rat beta cells, EdU day 3 to 6; for Percent EdU+ cells: control medium 5.6; for Z-Score: hit cut-off three standard deviations
Protocol: as §2
Freshly purified beta cells were cultured in control medium for 24 h prior to the addition of the LOPAC test compounds (day 1). The culture medium was refreshed on day 3 and the cells were then cultured further with 5-ethynyl-2′-deoxyuridine (EdU; 10 μM) up to day 6. Cell viability and percentage EdU incorporation were quantified after imaging and image analysis using the BD Pathway Bioimager, as described before (Assefa et al., 2014). To test the significance of compound effect on beta cell proliferation, average Z-score for each compound was calculated and a cut-off for potential positive hits was set at a Z-score of greater than three standard deviations. Thus, a compound is considered a hit only if it increases the percent EdU incorporation to above three standard deviation of the plate-averaged percent EdU incorporation.
as §4, with “2014). Replicating beta cells were quantified after 24 or 72 hrs incubation with 5-ethynyl-2′-deoxyuridine (EdU, a thymidine analog) using the ClickIT EDU Alexa Fluor assay (Invitrogen). EdU-positive cells were expressed as percentage of total cell number.” for “2014).”

[5] = tested on: rat beta cells; test: Beta cell viability / cell death (propidium iodide assay); format: cell-based; settings: for Percent viable cells: LOPAC screen at 1 μM, adult rat beta cells, day 6, control medium 97
Text: as §2, with “Numbers” for “On day 1, 9 and 15 of culture, total numbers of living beta cells per well were determined by semi-automatic cell count, after Hoechst 33342 (Ho) and propidium iodide (PI) staining. Numbers”, “Each condition was also evaluated for increases in the percentage of proliferating beta cells (incorporating the thymidine-analogue 5-ethynyl-2′-deoxyuridine, EdU; 100 μmol/l).” left out
as §3
Freshly purified beta cells were cultured in control medium for 24 h prior to the addition of the LOPAC test compounds (day 1). The culture medium was refreshed on day 3 and the cells were then cultured further with 5-ethynyl-2′-deoxyuridine (EdU; 10 μM) up to day 6. […] Thus, a compound is considered a hit only if it increases the percent EdU incorporation to above three standard deviation of the plate-averaged percent EdU incorporation.

## C[C@H]1C[C@@H]2[C@H]([C@@H](O)C[C@@]3(C)[C@H]2CC[C@]3(O)C(=O)CO)[C@@]2(C)C=CC(=O)C=C12 [6MP, 6-methylprednisolone]
[1]
  CDK4 mRNA level (ΔΔCt values relative to basal vehicle control): 1.7 ± 0.2^2
  CXCL11 mRNA level (ΔΔCt values relative to basal vehicle control): 0.1 ± 0.0^3
  Cyclin B1 mRNA level (ΔΔCt values relative to basal vehicle control): 4.7 ± 0.7^3
  Cyclin B2 mRNA level (ΔΔCt values relative to basal vehicle control): 4.8 ± 0.8^3
  Cyclin E1 mRNA level (ΔΔCt values relative to basal vehicle control): 2.3 ± 0.3^3
  CyclinD1 mRNA level (ΔΔCt values relative to basal vehicle control): 0.8 ± 0.1^
  DLK1 mRNA level (ΔΔCt values relative to basal vehicle control): 24491 ± 5157^3
  FKBP4 mRNA level (ΔΔCt values relative to basal vehicle control): 1.2 ± 0.1^
  FKBP5 mRNA level (ΔΔCt values relative to basal vehicle control): 15.4 ± 2.2^3
  GDF11 mRNA level (ΔΔCt values relative to basal vehicle control): 3.8 ± 1.0^3
  ICAM1 mRNA level (ΔΔCt values relative to basal vehicle control): 0.1 ± 0.1^3
  MKP1 mRNA level (ΔΔCt values relative to basal vehicle control): 20.7 ± 4.2^3
  MafA mRNA level (ΔΔCt values relative to basal vehicle control): 0.2 ± 0.1^3
  MafB mRNA level (ΔΔCt values relative to basal vehicle control): 5.1 ± 0.9^3
  NNAT mRNA level (ΔΔCt values relative to basal vehicle control): 7.4 ± 1.8^3
  NPY mRNA level (ΔΔCt values relative to basal vehicle control): 3.8 ± 0.6^3
  NR3C1 mRNA level (ΔΔCt values relative to basal vehicle control): 1.0 ± 0.1^
  Pdx1 mRNA level (ΔΔCt values relative to basal vehicle control): 0.5 ± 0.2^3
  TRH mRNA level (ΔΔCt values relative to basal vehicle control): 5.3 ± 0.5^3
[2]; 10 mM glucose and MP
  cells after 15-day culture compared to day 1 numbers: 152±5%
[2]; 6MP 1 μM, DEX 0.01 μM, CPA 0.5 μM
  change of beta cell numbers between day 1 and 15: nearly double
[2]; two-weeks culture
  increase in absolute number of living beta cells in culture: near population doubling
[3]; 9 days, 6MP followed by 6 days, basal
  Insulin Release during last 72 h of culture: 1.6 ± 1 ng/10^3 cells/h
[3]; 9 days, 6MP followed by 6 days, basal, 2.5 mM glucose
  glucose-induced insulin secretion, Day 15: 24.4 ± 3.3 % of content/h
[3]; 9 days, 6MP followed by 6 days, basal, 5 mM glucose
  glucose-induced insulin secretion, Day 15: 34.3 ± 3.9 % of content/h
[3]; 9 days, 6MP followed by 6 days, basal, 10 mM glucose
  glucose-induced insulin secretion, Day 15: 46.8 ± 7.7 % of content/h
[3]; 9 days, 6MP followed by 6 days, basal, 20 mM glucose
  glucose-induced insulin secretion, Day 15: 52.1 ± 1.8 % of content/h
[3]; 15 days, 6MP
  Insulin Release during last 72 h of culture: 0.9 ± 0.1 ng/10^3 cells/h
[3]; 15 days, 6MP, 2.5 mM glucose
  glucose-induced insulin secretion, Day 15: 35.3 ± 7.4 % of content/h
[3]; 15 days, 6MP, 5 mM glucose
  glucose-induced insulin secretion, Day 15: 37.7 ± 4.0 % of content/h
[3]; 15 days, 6MP, 10 mM glucose
  glucose-induced insulin secretion, Day 15: 43.2 ± 6.8 % of content/h
[3]; 15 days, 6MP, 20 mM glucose
  glucose-induced insulin secretion, Day 15: 44.0 ± 4.8 % of content/h
[4]; survival and proliferation of rat beta cells, data not shown
  final concentration of optimal potency (dose-response studies): 1000 nM

## C[C@H]1C[C@H]2[C@@H]3CCC4=CC(=O)C=C[C@]4(C)[C@@]3(Cl)[C@@H](O)C[C@]2(C)[C@@]1(O)C(=O)CO [Beclomethasone]
[4]
  Percent EdU+ cells: 20.6%
  Z-Score: 5.9
[5]
  Percent viable cells: 96%

## C[C@H]1C[C@H]2[C@@H]3CCC4=CC(=O)C=C[C@]4(C)[C@@]3(F)[C@@H](O)C[C@]2(C)[C@@]1(O)C(=O)CO [Betamethasone]
[4]
  Percent EdU+ cells: 21.1%
  Z-Score: 5.5
[5]
  Percent viable cells: 95%

## CCCC1O[C@@H]2C[C@H]3[C@@H]4CCC5=CC(=O)C=C[C@]5(C)[C@H]4[C@@H](O)C[C@]3(C)[C@]2(C(=O)CO)O1 (stereo partly shown) [Budesonide]
[4]
  Percent EdU+ cells: 24.9%
  Z-Score: 4.1
[5]
  Percent viable cells: 97%

## C[C@]12CCC(=O)C=C1CC[C@@H]1[C@@H]2CC[C@@]2(C)[C@H]1CC[C@]2(O)C(=O)CO [Cortexolone]
[4]
  Percent EdU+ cells: 13.1%
  Z-Score: 4.1
[5]
  Percent viable cells: 97%

## CS(=O)(=O)c1ccc([C@@H](CC2CCCC2)C(=O)Nc2nccs2)cc1 [GKA, RO-28-1675]
[5]; 10 mM glucose, irrespective of MP, data not shown
  effect of 15-day continuous treatment on beta cell survival: induces cytotoxicity and a net cell loss
[5]; GKA 3 μm, beta cells from 8- and 40-week old rats, 5 mmol/l glucose, data not shown
  marked cytotoxicity at day 15: not observed
[5]; GKA 3 μm, neonatal beta cells, 5 mmol/l glucose
  dead cells at day 15 (cytotoxicity): > 50%

## C[C@@H]1C[C@@H]([C@H](O)CC2CC(=O)NC(=O)C2)C(=O)[C@@H](C)C1 [cycloheximide]
[5]; within 48 h, purified rat beta cells
  number of dead cells (induction of apoptosis): dose-dependent increase in the number of dead cells

Reference: patent US20160274087A1, “SCREENING ASSAY FOR AGENTS THAT INFLUENCE BETA CELL NUMBER AND/OR PHENOTYPE” (VRIJE UNIVERSITEIT BRUSSEL, priority 2013, published 2016)
